Experimental data reported in ChEMBL document CHEMBL4507283, “Data for DCP probe BI-1935” (2021).

Experiments:
[1] = molecular target: Serine/threonine-protein kinase MRCK gamma (Homo sapiens) (UniProt Q6DT37); details: Compound concentration 1000.0 nM
[2] = molecular target: Myosin-IIIa (Homo sapiens) (UniProt Q8NEV4); details: Compound concentration 1000.0 nM
[3] = molecular target: Beta-2 adrenergic receptor (Homo sapiens) (UniProt P07550); details: Compound concentration 10.0 uM
[4] = test system: Tyrosine-protein kinase ABL1 (Homo sapiens), P00519 [Q252H]; details: Compound concentration 1000.0 nM
[5] = molecular target: Interstitial collagenase (Homo sapiens) (UniProt P03956); test: PEP_MMP-1 Eurofins-Panlabs selectivity data (BI); details: Compound concentration 10.0 uM
[6] = molecular target: Uncharacterized serine/threonine-protein kinase SBK3 (Homo sapiens) (UniProt P0C264); details: Compound concentration 1000.0 nM
[7] = molecular target: Mitogen-activated protein kinase 4 (Homo sapiens) (UniProt P31152); details: Compound concentration 1000.0 nM
[8] = molecular target: Testis-specific serine/threonine-protein kinase 1 (Homo sapiens) (UniProt Q9BXA7); details: Compound concentration 1000.0 nM
[9] = molecular target: Casein kinase I isoform delta (Homo sapiens) (UniProt P48730); details: Compound concentration 1000.0 nM
[10] = molecular target: Serine/threonine-protein kinase STK11 (Homo sapiens) (UniProt Q15831); details: Compound concentration 1000.0 nM
[11] = molecular target: Serine/threonine-protein kinase/endoribonuclease IRE1 (Homo sapiens) (UniProt O75460); details: Compound concentration 1000.0 nM
[12] = molecular target: Calcium/calmodulin-dependent protein kinase kinase 1 (Homo sapiens) (UniProt Q8N5S9); details: Compound concentration 1000.0 nM
[13] = molecular target: Sigma intracellular receptor 2 (Homo sapiens) (UniProt Q5BJF2); details: Compound concentration 10.0 uM
[14] = molecular target: cGMP-inhibited 3',5'-cyclic phosphodiesterase 3A (Homo sapiens) (UniProt Q14432); test: PDE-III/HU Eurofins-Panlabs selectivity data (BI); details: Compound concentration 10.0 uM
[15] = molecular target: Delta-type opioid receptor (Homo sapiens) (UniProt P41143); details: Compound concentration 10.0 uM
[16] = molecular target: Receptor tyrosine-protein kinase erbB-3 (Homo sapiens) (UniProt P21860); details: Compound concentration 1000.0 nM
[17] = molecular target: cGMP-dependent protein kinase 2 (Homo sapiens) (UniProt Q13237); details: Compound concentration 1000.0 nM
[18] = molecular target: Ribosomal protein S6 kinase alpha-2 (Homo sapiens) (UniProt Q15349); details: Compound concentration 1000.0 nM
[19] = molecular target: D(4) dopamine receptor (Homo sapiens) (UniProt P21917); test: D4.2/H Eurofins-Panlabs selectivity data (BI); details: Compound concentration 10.0 uM
[20] = molecular target: Serine/threonine-protein kinase 38 (Homo sapiens) (UniProt Q15208); details: Compound concentration 1000.0 nM
[21] = molecular target: Mitogen-activated protein kinase kinase kinase 12 (Homo sapiens) (UniProt Q12852); details: Compound concentration 1000.0 nM
[22] = molecular target: 5-hydroxytryptamine receptor 2C (Homo sapiens) (UniProt P28335); details: Compound concentration 10.0 uM
[23] = molecular target: Mitogen-activated protein kinase kinase kinase 11 (Homo sapiens) (UniProt Q16584); details: Compound concentration 1000.0 nM
[24] = molecular target: SNF-related serine/threonine-protein kinase (Homo sapiens) (UniProt Q9NRH2); details: Compound concentration 1000.0 nM
[25] = molecular target: Serine/threonine-protein kinase 38-like (Homo sapiens) (UniProt Q9Y2H1); details: Compound concentration 1000.0 nM
[26] = molecular target: Angiotensin-converting enzyme (Oryctolagus cuniculus) (UniProt P12822); test: ANGIOCONVENZ Eurofins-Panlabs selectivity data (BI); details: Compound concentration 10.0 uM
[27] = molecular target: Dual specificity testis-specific protein kinase 1 (Homo sapiens) (UniProt Q15569); details: Compound concentration 1000.0 nM
[28] = molecular target: D(3) dopamine receptor (Homo sapiens) (UniProt P35462); test: D3/HU Eurofins-Panlabs selectivity data (BI); details: Compound concentration 10.0 uM
[29] = molecular target: Type-2 angiotensin II receptor (Homo sapiens) (UniProt P50052); test: AT2/HU Eurofins-Panlabs selectivity data (BI); details: Compound concentration 10.0 uM
[30] = molecular target: Aurora kinase B (Homo sapiens) (UniProt Q96GD4); details: Compound concentration 1000.0 nM
[31] = molecular target: Insulin receptor (Homo sapiens) (UniProt P06213); details: Compound concentration 1000.0 nM
[32] = molecular target: Mitogen-activated protein kinase 14 (Homo sapiens) (UniProt Q16539); details: Compound concentration 1000.0 nM
[33] = molecular target: Citron Rho-interacting kinase (Homo sapiens) (UniProt O14578); details: Compound concentration 1000.0 nM
[34] = molecular target: GABA-A receptor; anion channel (Rattus norvegicus) (UniProt O09028+P15431+P18506+P18508+P19969+P20236+P23574+P23576+P28471+P28473+P30191+P62813+P63079+P63138+Q91ZM7+Q9ES14); details: Compound concentration 10.0 uM
[35] = molecular target: Insulin-like growth factor 1 receptor (Homo sapiens) (UniProt P08069); details: Compound concentration 1000.0 nM
[36] = molecular target: Serotonin 1 (5-HT1) receptor (Rattus norvegicus) (UniProt P28564+P30940+P19327+P28565); test: 5HT1/R Eurofins-Panlabs selectivity data (BI); assay type: protein assay; details: Compound concentration 10.0 uM
[37] = test system: Phosphatidylinositol 4,5-bisphosphate 3-kinase catalytic subunit alpha isoform (Homo sapiens), P42336 [E545K]; details: Compound concentration 1000.0 nM
[38] = molecular target: Ribosomal protein S6 kinase alpha-2 (Homo sapiens) (UniProt Q15349); details: Compound concentration 1000.0 nM; remark: listed apart in the source
[39] = molecular target: STE20/SPS1-related proline-alanine-rich protein kinase (Homo sapiens) (UniProt Q9UEW8); details: Compound concentration 1000.0 nM
[40] = molecular target: Dual specificity mitogen-activated protein kinase kinase 4 (Homo sapiens) (UniProt P45985); details: Compound concentration 1000.0 nM
[41] = molecular target: Histamine H1 receptor (Homo sapiens) (UniProt P35367); test: H1/H Eurofins-Panlabs selectivity data (BI); details: Compound concentration 10.0 uM
[42] = molecular target: Activin receptor type-1B (Homo sapiens) (UniProt P36896); details: Compound concentration 1000.0 nM
[43] = molecular target: Activin receptor type-1 (Homo sapiens) (UniProt Q04771); details: Compound concentration 1000.0 nM
[44] = molecular target: Dual serine/threonine and tyrosine protein kinase (Homo sapiens) (UniProt Q6XUX3); details: Compound concentration 1000.0 nM

Ribosomal protein S6 kinase alpha-2 (Homo sapiens), sequence (Q15349 whole entry): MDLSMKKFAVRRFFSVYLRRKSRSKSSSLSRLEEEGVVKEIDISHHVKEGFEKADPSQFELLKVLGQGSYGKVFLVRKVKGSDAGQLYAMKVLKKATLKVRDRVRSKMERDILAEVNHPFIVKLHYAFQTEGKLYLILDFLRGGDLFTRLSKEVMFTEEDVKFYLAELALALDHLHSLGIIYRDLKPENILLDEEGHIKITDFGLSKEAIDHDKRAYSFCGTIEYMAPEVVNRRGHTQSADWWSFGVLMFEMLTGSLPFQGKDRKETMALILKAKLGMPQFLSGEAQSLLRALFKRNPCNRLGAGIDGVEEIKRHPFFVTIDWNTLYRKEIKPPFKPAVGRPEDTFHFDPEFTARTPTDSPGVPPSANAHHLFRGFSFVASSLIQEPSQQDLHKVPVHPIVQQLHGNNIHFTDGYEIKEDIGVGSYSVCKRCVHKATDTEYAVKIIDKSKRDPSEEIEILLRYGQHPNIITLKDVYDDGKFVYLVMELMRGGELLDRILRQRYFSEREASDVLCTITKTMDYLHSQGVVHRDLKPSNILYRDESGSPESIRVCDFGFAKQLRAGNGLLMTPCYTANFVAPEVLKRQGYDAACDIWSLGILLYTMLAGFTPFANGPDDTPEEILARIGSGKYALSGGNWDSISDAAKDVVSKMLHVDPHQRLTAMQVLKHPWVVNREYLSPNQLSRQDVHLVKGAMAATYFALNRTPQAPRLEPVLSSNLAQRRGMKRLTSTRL
D(4) dopamine receptor (Homo sapiens), sequence (P21917 whole entry): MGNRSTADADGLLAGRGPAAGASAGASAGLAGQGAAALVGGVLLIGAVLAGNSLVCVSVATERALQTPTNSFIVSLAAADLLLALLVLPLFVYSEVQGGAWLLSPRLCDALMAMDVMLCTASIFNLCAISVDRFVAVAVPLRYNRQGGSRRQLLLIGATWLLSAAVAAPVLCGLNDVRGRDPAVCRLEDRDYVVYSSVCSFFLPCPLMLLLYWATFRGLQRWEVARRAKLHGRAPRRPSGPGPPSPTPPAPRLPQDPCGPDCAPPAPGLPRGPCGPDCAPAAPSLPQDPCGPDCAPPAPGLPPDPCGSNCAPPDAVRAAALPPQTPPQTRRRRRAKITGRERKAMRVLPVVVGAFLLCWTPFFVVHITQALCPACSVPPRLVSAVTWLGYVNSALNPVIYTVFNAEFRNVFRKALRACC
Delta-type opioid receptor (Homo sapiens), sequence (P41143 whole entry): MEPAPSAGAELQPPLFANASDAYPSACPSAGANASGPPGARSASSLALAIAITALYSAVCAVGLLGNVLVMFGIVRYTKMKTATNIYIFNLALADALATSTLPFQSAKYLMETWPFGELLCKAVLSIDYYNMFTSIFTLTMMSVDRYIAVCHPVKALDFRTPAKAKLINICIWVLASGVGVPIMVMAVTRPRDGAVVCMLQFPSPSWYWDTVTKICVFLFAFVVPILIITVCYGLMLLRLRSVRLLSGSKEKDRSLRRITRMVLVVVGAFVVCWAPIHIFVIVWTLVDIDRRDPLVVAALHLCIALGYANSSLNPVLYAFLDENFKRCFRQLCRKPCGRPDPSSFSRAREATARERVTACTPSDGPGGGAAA
Activin receptor type-1B (Homo sapiens), sequence (P36896 whole entry): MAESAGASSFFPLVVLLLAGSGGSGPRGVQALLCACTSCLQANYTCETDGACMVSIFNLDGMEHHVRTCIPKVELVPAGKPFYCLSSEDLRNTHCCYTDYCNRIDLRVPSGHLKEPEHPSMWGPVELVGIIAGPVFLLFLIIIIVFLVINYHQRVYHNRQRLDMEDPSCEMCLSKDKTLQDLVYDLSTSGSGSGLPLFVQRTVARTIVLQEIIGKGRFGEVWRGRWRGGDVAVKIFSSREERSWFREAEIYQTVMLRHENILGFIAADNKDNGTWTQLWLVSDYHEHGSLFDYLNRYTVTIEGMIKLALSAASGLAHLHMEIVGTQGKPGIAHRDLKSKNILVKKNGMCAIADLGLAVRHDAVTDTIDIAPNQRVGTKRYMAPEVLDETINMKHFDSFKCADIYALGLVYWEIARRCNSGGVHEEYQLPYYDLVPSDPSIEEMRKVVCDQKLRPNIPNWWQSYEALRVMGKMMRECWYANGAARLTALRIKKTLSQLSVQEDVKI
Casein kinase I isoform delta (Homo sapiens), sequence (P48730 whole entry, looked up, canonical isoform): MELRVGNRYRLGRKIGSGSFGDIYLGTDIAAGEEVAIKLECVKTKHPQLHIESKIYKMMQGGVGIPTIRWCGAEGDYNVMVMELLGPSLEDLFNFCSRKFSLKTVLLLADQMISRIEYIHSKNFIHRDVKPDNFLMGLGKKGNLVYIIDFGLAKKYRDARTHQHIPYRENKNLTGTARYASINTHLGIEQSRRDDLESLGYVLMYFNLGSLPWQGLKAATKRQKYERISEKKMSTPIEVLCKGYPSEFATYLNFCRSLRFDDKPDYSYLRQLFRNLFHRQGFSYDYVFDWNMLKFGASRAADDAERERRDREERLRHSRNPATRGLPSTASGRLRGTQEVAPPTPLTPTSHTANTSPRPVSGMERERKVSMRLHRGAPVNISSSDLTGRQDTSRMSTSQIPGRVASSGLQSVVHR
Serine/threonine-protein kinase/endoribonuclease IRE1 (Homo sapiens), sequence (O75460 19-977 limits assumed): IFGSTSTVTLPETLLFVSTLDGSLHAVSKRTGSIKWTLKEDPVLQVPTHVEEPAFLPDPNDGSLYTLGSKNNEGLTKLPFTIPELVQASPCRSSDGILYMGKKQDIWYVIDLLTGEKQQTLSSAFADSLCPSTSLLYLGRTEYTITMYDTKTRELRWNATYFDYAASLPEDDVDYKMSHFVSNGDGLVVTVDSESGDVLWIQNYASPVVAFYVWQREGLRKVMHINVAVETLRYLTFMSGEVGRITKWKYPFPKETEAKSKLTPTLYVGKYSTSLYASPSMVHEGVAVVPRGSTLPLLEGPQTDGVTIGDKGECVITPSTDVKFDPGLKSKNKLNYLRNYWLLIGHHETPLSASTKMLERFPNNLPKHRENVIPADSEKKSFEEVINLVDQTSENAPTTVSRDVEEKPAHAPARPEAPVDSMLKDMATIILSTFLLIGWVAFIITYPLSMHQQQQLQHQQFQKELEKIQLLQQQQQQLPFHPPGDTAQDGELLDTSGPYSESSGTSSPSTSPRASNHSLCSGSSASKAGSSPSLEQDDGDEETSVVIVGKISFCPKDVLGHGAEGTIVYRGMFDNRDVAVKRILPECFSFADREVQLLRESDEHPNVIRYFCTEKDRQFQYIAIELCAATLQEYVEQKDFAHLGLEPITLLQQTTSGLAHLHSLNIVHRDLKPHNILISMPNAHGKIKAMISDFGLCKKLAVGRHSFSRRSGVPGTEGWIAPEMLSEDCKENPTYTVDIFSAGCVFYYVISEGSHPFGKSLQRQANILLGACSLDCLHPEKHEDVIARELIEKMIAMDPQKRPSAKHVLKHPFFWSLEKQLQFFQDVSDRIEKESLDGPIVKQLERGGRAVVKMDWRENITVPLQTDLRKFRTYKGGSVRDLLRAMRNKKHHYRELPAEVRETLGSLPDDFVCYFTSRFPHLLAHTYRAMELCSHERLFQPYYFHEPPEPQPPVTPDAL
Serine/threonine-protein kinase STK11 (Homo sapiens), sequence (Q15831 whole entry): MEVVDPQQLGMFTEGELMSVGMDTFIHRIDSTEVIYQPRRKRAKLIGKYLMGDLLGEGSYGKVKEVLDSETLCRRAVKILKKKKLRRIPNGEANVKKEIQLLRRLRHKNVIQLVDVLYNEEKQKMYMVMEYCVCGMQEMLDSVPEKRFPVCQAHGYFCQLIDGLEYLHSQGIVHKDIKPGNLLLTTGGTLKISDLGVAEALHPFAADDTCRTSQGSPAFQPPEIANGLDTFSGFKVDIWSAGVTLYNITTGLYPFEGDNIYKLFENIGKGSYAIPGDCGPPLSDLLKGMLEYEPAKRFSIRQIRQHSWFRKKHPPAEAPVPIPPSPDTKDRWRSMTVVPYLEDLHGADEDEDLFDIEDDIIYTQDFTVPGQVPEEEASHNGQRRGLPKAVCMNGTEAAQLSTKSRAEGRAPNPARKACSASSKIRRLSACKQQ
SNF-related serine/threonine-protein kinase (Homo sapiens), sequence (Q9NRH2 whole entry): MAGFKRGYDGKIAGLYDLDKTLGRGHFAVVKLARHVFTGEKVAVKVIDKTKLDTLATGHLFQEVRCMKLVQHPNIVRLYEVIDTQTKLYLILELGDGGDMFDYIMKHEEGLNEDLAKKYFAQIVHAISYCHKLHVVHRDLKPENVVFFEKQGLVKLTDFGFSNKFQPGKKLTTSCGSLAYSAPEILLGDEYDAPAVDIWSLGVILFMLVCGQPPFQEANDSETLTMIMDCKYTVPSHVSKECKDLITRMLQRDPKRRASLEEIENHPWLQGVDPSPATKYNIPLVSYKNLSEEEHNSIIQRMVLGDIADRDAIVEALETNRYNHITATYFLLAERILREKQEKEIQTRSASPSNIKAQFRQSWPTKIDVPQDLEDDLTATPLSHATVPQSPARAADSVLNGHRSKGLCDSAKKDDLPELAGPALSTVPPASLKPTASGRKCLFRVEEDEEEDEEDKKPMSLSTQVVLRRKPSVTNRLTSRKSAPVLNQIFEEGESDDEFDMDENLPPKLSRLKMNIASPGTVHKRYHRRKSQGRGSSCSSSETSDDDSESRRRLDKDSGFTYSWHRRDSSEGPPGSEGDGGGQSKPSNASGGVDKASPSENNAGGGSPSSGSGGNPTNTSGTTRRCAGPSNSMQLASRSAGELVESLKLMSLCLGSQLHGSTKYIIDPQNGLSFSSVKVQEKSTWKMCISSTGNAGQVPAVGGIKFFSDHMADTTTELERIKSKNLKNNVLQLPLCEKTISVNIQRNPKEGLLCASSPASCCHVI
Beta-2 adrenergic receptor (Homo sapiens), sequence (P07550 whole entry, looked up): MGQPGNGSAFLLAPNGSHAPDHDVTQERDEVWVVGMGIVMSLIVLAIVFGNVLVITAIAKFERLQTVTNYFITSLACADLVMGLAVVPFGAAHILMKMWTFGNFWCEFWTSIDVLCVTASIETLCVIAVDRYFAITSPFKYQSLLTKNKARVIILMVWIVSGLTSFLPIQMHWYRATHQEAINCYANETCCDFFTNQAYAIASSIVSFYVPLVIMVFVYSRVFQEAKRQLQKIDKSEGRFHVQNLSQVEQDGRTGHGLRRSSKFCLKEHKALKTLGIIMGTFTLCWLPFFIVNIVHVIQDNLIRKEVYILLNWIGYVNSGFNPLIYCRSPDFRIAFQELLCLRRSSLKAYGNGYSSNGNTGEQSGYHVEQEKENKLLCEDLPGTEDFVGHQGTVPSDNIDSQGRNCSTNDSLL

CCOCCn1cc(C(=O)Nc2ccc(-n3nc(-c4cccnc4)cc3C(F)(F)F)cn2)ccc1=O [BI 1935]
inactive: residual activity [1] 91% | residual activity [2] 100% | inhibition [3] -1.17% | residual activity [4] 73% | residual activity [5] 100% | residual activity [6] 78% | residual activity [7] 100% | residual activity [8] 100% | residual activity [9] 100% | residual activity [10] 89% | residual activity [11] 87% | residual activity [12] 100% | inhibition [13] -2.98% | residual activity [14] 85% | inhibition [15] -6.39% | residual activity [16] 87% | residual activity [17] 100% | residual activity [18] 89% | residual activity [19] 103% | residual activity [20] 91% | residual activity [21] 100% | inhibition [22] 3.75% | residual activity [23] 100% | residual activity [24] 88% | residual activity [25] 66% | residual activity [26] 101% | residual activity [27] 85% | residual activity [28] 110% | residual activity [29] 97% | residual activity [30] 100% | residual activity [31] 98% | residual activity [32] 100% | residual activity [33] 97% | inhibition [34] 18.1% | residual activity [35] 96% | residual activity [36] 117% | residual activity [37] 96% | residual activity [38] 84% | residual activity [39] 100% | residual activity [40] 80% | residual activity [41] 98% | residual activity [42] 79% | residual activity [43] 75% | residual activity [44] 61%
